Where “and” joins values, the source holds several entries; their conditions need not be identical. Identical values can stand only once. Where a SMILES comes first, the peptide text is derived from it. [ ]: non-standard residue; d: D form. The star is where a group is joined. pNA = O=[N+]([O-])c1ccc(N*)cc1
How the values were obtained:
Plasma kallikrein (HPK) = molecular target: T1, Plasma kallikrein (HPK) (Homo sapiens, UniProt P03952); test: Substrate specificity: reaction of chromogenic substrates with plasma kallikrein, absorbance read-out; type: biochemical; details: for Absorbance (O.D.) HPK: S0 = 2.0 mM, 37° C., 5 minutes, pH 9.0; for Relative reactivity with HPK: PS-2203N taken as 100, initial substrate concentration S0 = 2 mM
T1 construct: purchased AB Kabi Diagnostica Lot No. 3740152 (catalogue number not given)
T1 sequence (P03952 391-638 limits assumed): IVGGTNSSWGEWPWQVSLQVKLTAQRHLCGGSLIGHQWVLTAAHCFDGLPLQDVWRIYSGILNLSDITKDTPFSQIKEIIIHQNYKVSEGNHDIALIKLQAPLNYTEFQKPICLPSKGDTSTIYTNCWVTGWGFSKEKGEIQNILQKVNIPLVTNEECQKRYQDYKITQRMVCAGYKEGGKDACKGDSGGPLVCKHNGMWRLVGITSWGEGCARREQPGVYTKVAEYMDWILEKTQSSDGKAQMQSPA
T1 sequence (P03952 20-390 partner limits assumed): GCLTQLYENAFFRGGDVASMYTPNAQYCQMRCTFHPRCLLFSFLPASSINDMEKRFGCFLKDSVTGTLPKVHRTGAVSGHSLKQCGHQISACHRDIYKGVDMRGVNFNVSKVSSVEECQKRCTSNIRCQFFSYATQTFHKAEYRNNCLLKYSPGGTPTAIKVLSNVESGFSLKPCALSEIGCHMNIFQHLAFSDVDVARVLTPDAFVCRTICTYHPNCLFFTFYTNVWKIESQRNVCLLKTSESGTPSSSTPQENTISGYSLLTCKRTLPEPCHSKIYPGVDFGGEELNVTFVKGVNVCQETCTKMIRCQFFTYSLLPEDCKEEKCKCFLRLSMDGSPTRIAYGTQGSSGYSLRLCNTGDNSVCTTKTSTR
Protocol: (§1) The specificities of the novel substrates synthesized above were examined by reacting them with various enzymes.
(§2) (1) Substrate solution: 2 mmoles/liter H2 O
(§3) (2) Buffer solution: Concentrations of Tris, NaCl and CaCl2 and pH value of reaction for every enzyme were as follows: […]
(§4) Into a silicone-treated test tube made of hard glass or a plastic were introduced 0.3 ml of a buffer solution and 0.1 ml of an enzyme reagent. After preheating them for 5 minutes in a thermostated bath kept at 37° C., 0.1 ml of substrate solution was added and an enzyme reaction was carried out at 37° C. for 5 minutes. When an exact five minutes had passed, 2.0 ml of the reaction stopper or the reaction-stopping color-forming reagent was added to stop the enzyme reaction, and subsequently the reaction mixture was allowed to stand at 37° C. for 10 minutes. Then, absorbance was measured at 405 nm or 700 nm.

[1] = molecular target: T2, Glandular kallikrein (HGK) (Homo sapiens, UniProt P06870); test: Substrate specificity: reaction of chromogenic substrates with glandular kallikrein, absorbance read-out; type: biochemical, Human urine; details: for Absorbance (O.D.) HGK: S0 = 2.0 mM, 37° C., 5 minutes, pH 9.0; for Relative reactivity with HGK: PS-2203N taken as 100, initial substrate concentration S0 = 2 mM; for Reactivity with glandular kallikrein: relative to Z-D-Orn-Phe-Arg-PNA (PS-2203N) as 100
T2 construct: purchased Green Cross Lot No. 1003SM (catalogue number not given); host or cells: human urine
T2 sequence (P06870 25-262): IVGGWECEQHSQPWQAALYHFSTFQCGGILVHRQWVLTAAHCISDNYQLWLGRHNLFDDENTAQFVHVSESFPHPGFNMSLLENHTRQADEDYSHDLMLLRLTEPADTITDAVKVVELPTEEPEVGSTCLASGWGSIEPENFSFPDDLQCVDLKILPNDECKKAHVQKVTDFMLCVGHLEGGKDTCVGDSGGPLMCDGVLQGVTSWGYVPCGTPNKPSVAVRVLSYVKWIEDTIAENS
Protocol: as §1, §2, §3, §4

Thrombin (TH) = molecular target: T3, Thrombin (TH) (Bos taurus, UniProt P00735); test: Substrate specificity: reaction of chromogenic substrates with thrombin, absorbance read-out; type: biochemical, Bovine; details: for Absorbance (O.D.) TH: S0 = 2.0 mM, 37° C., 5 minutes, pH 8.5; for Relative reactivity with TH: PS-2203N taken as 100, initial substrate concentration S0 = 2 mM; for Reactivity with thrombin: relative to Z-D-Orn-Phe-Arg-PNA (PS-2203N) as 100
T3 construct: purchased Mochida Pharmaceutical Lot No. 65146 (catalogue number not given)
Protocol: as §1, §2, §3, §4

Plasmin (PL) = molecular target: T4, Plasmin (PL) (Homo sapiens, UniProt P00747); test: Substrate specificity: reaction of chromogenic substrates with plasmin, absorbance read-out; type: biochemical; details: for Absorbance (O.D.) PL: S0 = 2.0 mM, 37° C., 5 minutes, pH 7.8; for Relative reactivity with PL: PS-2203N taken as 100, initial substrate concentration S0 = 2 mM; for Reactivity with plasmin: relative to Z-D-Orn-Phe-Arg-PNA (PS-2203N) as 100
T4 construct: purchased Green Cross Lot No. PL-35 (catalogue number not given)
T4 sequence (P00747 581-810 limits assumed): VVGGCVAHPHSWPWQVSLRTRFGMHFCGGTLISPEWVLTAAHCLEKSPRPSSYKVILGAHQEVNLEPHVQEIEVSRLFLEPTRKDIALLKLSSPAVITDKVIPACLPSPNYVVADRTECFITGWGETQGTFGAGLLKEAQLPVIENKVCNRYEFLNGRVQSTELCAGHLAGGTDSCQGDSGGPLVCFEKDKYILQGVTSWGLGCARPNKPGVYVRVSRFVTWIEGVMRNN
T4 sequence (P00747 97-580 partner limits assumed): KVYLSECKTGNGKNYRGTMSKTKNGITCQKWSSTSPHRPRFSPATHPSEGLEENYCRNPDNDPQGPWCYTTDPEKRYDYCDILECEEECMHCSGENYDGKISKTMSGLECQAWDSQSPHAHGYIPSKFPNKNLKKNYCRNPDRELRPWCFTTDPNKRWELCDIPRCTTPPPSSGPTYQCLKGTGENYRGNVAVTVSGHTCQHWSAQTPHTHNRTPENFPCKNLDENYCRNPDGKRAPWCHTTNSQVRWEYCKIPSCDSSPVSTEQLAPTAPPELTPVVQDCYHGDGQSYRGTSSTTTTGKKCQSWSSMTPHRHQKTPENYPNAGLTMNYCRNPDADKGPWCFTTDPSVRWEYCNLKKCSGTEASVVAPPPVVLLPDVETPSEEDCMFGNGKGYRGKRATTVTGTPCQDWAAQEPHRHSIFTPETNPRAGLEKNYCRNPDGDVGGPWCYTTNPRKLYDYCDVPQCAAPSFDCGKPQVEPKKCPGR
Protocol: as §1, §2, §3, §4

Xa factor (FXa) = molecular target: T5, Xa factor (FXa) (Bos taurus, UniProt P00743); test: Substrate specificity: reaction of chromogenic substrates with Xa factor, absorbance read-out; type: biochemical, Bovine; details: for Absorbance (O.D.) FXa: S0 = 2.0 mM, 37° C., 5 minutes, pH 8.3; for Relative reactivity with FXa: PS-2203N taken as 100, initial substrate concentration S0 = 2 mM; for Reactivity with Xa factor: relative to Z-D-Orn-Phe-Arg-PNA (PS-2203N) as 100
T5 construct: purchased Sigma Lot No. 73F-9450 (catalogue number not given)
T5 sequence (P00743 234-492 limits assumed): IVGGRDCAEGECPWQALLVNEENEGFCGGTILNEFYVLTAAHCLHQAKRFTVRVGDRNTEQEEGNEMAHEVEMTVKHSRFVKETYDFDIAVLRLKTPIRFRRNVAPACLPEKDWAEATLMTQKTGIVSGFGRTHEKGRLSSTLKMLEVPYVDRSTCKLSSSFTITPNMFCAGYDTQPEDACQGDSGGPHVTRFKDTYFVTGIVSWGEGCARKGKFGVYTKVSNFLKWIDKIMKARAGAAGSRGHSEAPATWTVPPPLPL
T5 sequence (P00743 41-180 partner limits assumed): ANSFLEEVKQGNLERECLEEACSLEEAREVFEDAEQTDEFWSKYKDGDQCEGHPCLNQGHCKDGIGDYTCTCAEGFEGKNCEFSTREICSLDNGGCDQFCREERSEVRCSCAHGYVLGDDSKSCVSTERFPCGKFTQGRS
Protocol: as §1, §2, §3, §4

Urokinase (UK) = molecular target: T6, Urokinase (UK) (Homo sapiens, UniProt P00749); test: Substrate specificity: reaction of chromogenic substrates with urokinase, absorbance read-out; type: biochemical; details: for Absorbance (O.D.) UK: S0 = 2.0 mM, 37° C., 5 minutes, pH 8.2; for Relative reactivity with UK: PS-2203N taken as 100, initial substrate concentration S0 = 2 mM
T6 construct: purchased Mochida Pharmaceutical Lot No. 2A-139 (catalogue number not given)
Protocol: as §1, §2, §3, §4

[2] = 700 nm (CHA substrates, pentaamine ferroate)

Row | Molecule | Absorbance (O.D.) HPK (Plasma kallikrein (HPK); [2]) | Absorbance (O.D.) HGK [1, 2] | Absorbance (O.D.) TH (Thrombin (TH); [2]) | Absorbance (O.D.) PL (Plasmin (PL); [2]) | Absorbance (O.D.) FXa (Xa factor (FXa); [2]) | Absorbance (O.D.) UK (Urokinase (UK); [2]) | Relative reactivity with HPK (Plasma kallikrein (HPK)) | Relative reactivity with HGK [1] | Relative reactivity with TH (Thrombin (TH)) | Relative reactivity with PL (Plasmin (PL)) | Relative reactivity with FXa (Xa factor (FXa)) | Relative reactivity with UK (Urokinase (UK)) | further results
1 | MOC--D-Lys--Phe--Arg--CHA.2HCl [PS-2204] | 0.301 O.D. | 0.016 O.D. | 0.010 O.D. | 0.107 O.D. | 0.046 O.D. | 0.0 O.D. |  |  |  |  |  |  | 
2 | Z-D-Orn-Phe-Arg-PNA [PS-2203N, reference compound] |  |  |  |  |  |  | 100 | 100 | 100 | 100 | 100 | 100 | Absorbance (O.D.) HPK (Plasma kallikrein (HPK); 405 nm (PNA substrates)): 0.250 O.D. and 0.249 O.D.; Absorbance (O.D.) HGK ([1]; 405 nm (PNA substrates)): 0.013 O.D.; Absorbance (O.D.) TH (Thrombin (TH); 405 nm (PNA substrates)): 0.056 O.D.; Absorbance (O.D.) PL (Plasmin (PL); 405 nm (PNA substrates)): 0.250 O.D.; Absorbance (O.D.) FXa (Xa factor (FXa); 405 nm (PNA substrates)): 0.230 O.D.; Absorbance (O.D.) UK (Urokinase (UK); 405 nm (PNA substrates)): 0.021 O.D.
3 | Z-D-Orn-Phe-Arg-CHA [PS-2203] | 0.331 O.D. | 0.005 O.D. | 0.007 O.D. | 0.079 O.D. | 0.022 O.D. | 0.0 O.D. | 59 | 15 | 2 | 14 | 4 | 0 | Reactivity with glandular kallikrein [1]: 15%; Reactivity with thrombin (Thrombin (TH)): 2%; Reactivity with plasmin (Plasmin (PL)): 14%; Reactivity with Xa factor (Xa factor (FXa)): 4%
4 | Z--D-Lys--Phe--Arg--CHA.2HCl [PS-2200] | 0.316 O.D. | 0.010 O.D. | 0.009 O.D. | 0.094 O.D. | 0.046 O.D. | 0.002 O.D. |  |  |  |  |  |  | 
5 | i-BOC--D-Lys--Phe--Arg--CHA.2HCl [PS-2202] | 0.245 O.D. | 0.006 O.D. | 0.005 O.D. | 0.128 O.D. | 0.040 O.D. | 0.0 O.D. |  |  |  |  |  |  | 

Second part, led by results:

Row | Absorbance (O.D.) HPK (Plasma kallikrein (HPK); [2]) | Absorbance (O.D.) HGK [1, 2] | Absorbance (O.D.) TH (Thrombin (TH); [2]) | Absorbance (O.D.) PL (Plasmin (PL); [2]) | Absorbance (O.D.) FXa (Xa factor (FXa); [2]) | Absorbance (O.D.) UK (Urokinase (UK); [2]) | Relative reactivity with HPK (Plasma kallikrein (HPK)) | Relative reactivity with HGK [1] | Relative reactivity with TH (Thrombin (TH)) | Relative reactivity with PL (Plasmin (PL)) | Relative reactivity with FXa (Xa factor (FXa)) | Relative reactivity with UK (Urokinase (UK)) | Molecule | further results
6 | 0.234 O.D. | 0.010 O.D. | 0.007 O.D. | 0.094 O.D. | 0.016 O.D. | 0.0 O.D. |  |  |  |  |  |  | SBz--D-Lys--Phe--Arg--CHA.2HCl [PS-2206] | 
7 | 0.255 O.D. | 0.014 O.D. | 0.015 O.D. | 0.158 O.D. | 0.010 O.D. | 0.0 O.D. |  |  |  |  |  |  | Tos-D-Lys-Phe-Arg-CHA.2HCl [PS-2205] | 
8 |  |  |  |  |  |  | 131 | 169 | 269 | 48 | 169 | 50 | N=C(N)NCCC[C@H](NC(=O)[C@H](Cc1ccccc1)NC(=O)[C@H]1CCCN1)C(=O)Nc1ccc([N+](=O)[O-])cc1 [S-2302, H-D-Pro-Phe-Arg-PNA, reference compound] (H-[dP]-Phe-Arg-pNA) | Absorbance (O.D.) HPK (Plasma kallikrein (HPK); 405 nm (PNA substrates)): 0.325 O.D.; Absorbance (O.D.) HGK ([1]; 405 nm (PNA substrates)): 0.021 O.D.; Reactivity with glandular kallikrein [1]: 169%; Absorbance (O.D.) TH (Thrombin (TH); 405 nm (PNA substrates)): 0.152 O.D.; Reactivity with thrombin (Thrombin (TH)): 269%; Absorbance (O.D.) PL (Plasmin (PL); 405 nm (PNA substrates)): 0.121 O.D.; Reactivity with plasmin (Plasmin (PL)): 48%; Absorbance (O.D.) FXa (Xa factor (FXa); 405 nm (PNA substrates)): 0.389 O.D.; Reactivity with Xa factor (Xa factor (FXa)): 169%; Absorbance (O.D.) UK (Urokinase (UK); 405 nm (PNA substrates)): 0.011 O.D.; Reactivity with urokinase (Urokinase (UK); relative to Z-D-Orn-Phe-Arg-PNA (PS-2203N) as 100): 50%
